Test results reported in patent publication US11357786B2, “Synthetic disugar hydrocarbons as natural analogs to control microbial behaviors” (Syracuse University, priority 2014, dated 2022).

How the values were obtained:
PAO1 and rhlA = test: Bacterial growth on soft agar swarm plate; type: cell-based, Pseudomonas aeruginosa
Protocol: Swarm agar plates were based on M8 medium supplemented with 0.2% glucose, 0.5% casamino acid, 1 mM MgSO4 and […]. 17 For each set of experiment all the swarm plates were poured from same batch of agar and allowed to dry for 1 h before inoculation of bacteria. Bacterial culture (3 μl) (wild type PAO1 or rhlA mutant) with OD600 between […] was inoculated on the solidified agar plates. Swarm agar plates were incubated at 37° C. for 12 h and then incubated for additional 12 h at room temp. Chronological images of swarm plates were taken using a camera. To measure swarming area, sizes of the petridish in all swarming images were adjusted to a pre-assigned diameter and images were printed on copying paper (Xerox-business 4200). Weight of a 1 cm^2 copy paper square was roughly ˜8.0 mg. swarming images on the copy paper were cut and weighed, the swarm area was calculated by dividing the weight of image by weight of 1 cm^2 square (8 mg).

[1] = tested on: nonswarming P. aeruginosa mutant rhlA; test: Swarming motility of nonswarming rhlA mutant on soft agar (reactivation / agonist assay); type: cell-based, Pseudomonas aeruginosa; details: 85 μM in soft agar (0.5%), 24 h
How it was run: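 rhlA transposon mutant of PAO1 (3 μl, OD600 0.4–0.6) inoculated on M8 soft agar (0.2% glucose, 0.5% casamino acids, 1 mM MgSO4, 0.5% agar) with test compound to find swarming agonists. Incubated 12 h at 37 °C plus 12 h at room temperature; swarm area measured by weighing paper cut-outs of imaged swarms.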

wild type PAO1 = test: Swarming motility of wild type PAO1 on soft agar (antagonist assay); type: cell-based, Pseudomonas aeruginosa
How it was run: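 Wild-type PAO1 culture (OD600 ~0.4–0.6, 3 μl) spotted on M8 swarm agar with 0.2% glucose, 0.5% casamino acids, 1 mM MgSO4 and 0.5% agar. Plates incubated 12 h at 37 °C then 12 h at room temperature; swarm area measured by cutting and weighing printed plate images.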

PAO1 biofilm = test: Crystal violet based static biofilm inhibition assay, DSHs in LB media (Examples 2 and 4); type: cell-based, Pseudomonas aeruginosa
How it was run: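 PAO1 subculture (OD600 ~0.1) was grown statically in LB at 37° C for 24 h with or without DSHs (screened at 160 μM). Surface-attached biofilm was then stained with 0.1% crystal violet, solubilised in 30% AcOH and read at 600 nm. Values are the mean of 4 wells.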

[2] = tested on: planktonic Pseudomonas aeruginosa (PAO1); test: Planktonic bacterial growth (OD600 growth curve); type: cell-based; details: 160 μM, LB
Protocol: Antimicrobial activities of disaccharide hydrocarbons against planktonic growth. Overnight inoculum of PAO1 was sub-cultured to an OD600˜0.1 and then aliquoted (200 μL) into the wells of a micro-titer plate and DSHs (˜160 μM) were then added to assigned wells. Wells with no-agents were created as a positive control. The micro-titer plate was then placed in a rotary shaker (250 rpm at 37° C.) and optical density was measured after regular intervals of time using Biotek ELx800 ™ absorbance microplate reader (BioTek Instruments, Inc., Winooski, Vt.) using Gen5™ data analysis software. The OD600 values were taken in sterile conditions over 24 h. The OD600 values were plotted against time to obtain a growth curve for planktonic growth with or without agents.
Optical density was measured using Biotek ELx800 ™ absorbance microplate reader (BioTek Instruments, Inc., Winooski, Vt.) using Gen5™ data analysis software. The OD600 values were taken in sterile conditions at 0, 2, 4, 6, 8, 10, 12, and 24 h after bacterial culture inoculation in 96-well polystyrene plate with and without agents.

CC(C)=CCC/C(C)=C/CC/C(C)=C/CO[C@@H]1O[C@H](CO)[C@@H](O[C@@H]2O[C@H](CO)[C@@H](O)[C@H](O)[C@H]2O)[C@H](O)[C@H]1O [FβC (11), farnesyl-β-cellobioside]
Bacterial growth on soft-agar plate (PAO1 and rhlA; 160 μM, PAO1 and rhlA): complete abolition of bacterial growth on the soft-agar plate
Bacterial growth on soft agar (~0.5%) plate (PAO1 and rhlA; PAO1, concentration not stated): inhibited bacterial (PAO1) growth on a soft agar
Swarming motility of rhlA mutant [1]: weak activation of rhlA swarming motility
Swarming motility of wild type PAO1 (wild type PAO1; 85 μM in soft agar, 24 h): weak promotion of swarming motility of wild type PAO1
Effect on PAO1 swarming (wild type PAO1; concentration not given): no apparent effect on PAO1 swarming
Inhibition of PAO1 biofilm formation (surface attached) (PAO1 biofilm; 160 μM, 24 h, LB media, listed as 11: FβC, 160 µM): poor anti-biofilm activity
Anti-biofilm activity (biofilm inhibition) (PAO1 biofilm; concentration not given): did not show anti-biofilm activities
Inhibition of planktonic growth of Pseudomonas aeruginosa [2]: did not inhibit the planktonic growth
